Measurements from PMC12858405, “Ideal efficacy photoswitching for chromocontrol of TRPC4/5 channel functions in live tissues” (Nature Chemical Biology, 2026).

Tests used:
heteromeric TRPC5:TRPC1 = molecular target: T1, heteromeric TRPC5:TRPC1 (Homo sapiens, UniProt Q9UL62); assay: Whole-cell recordings, HEK293 co-expressing TRPC5 and TRPC1; format: cell-based; conditions: 10 nM
T1 construct: expressed in transfected cells; host or cells: HEK293, transiently transfected
Description: Müller, Niemeyer, et al., Schaefer & Thorn-Seshold 2025: Ideal Efficacy Photoswitching of TRPC4/5 in Tissue 3.3 Activation of heteromeric TRPC4:TRPC1 and TRPC5:TRPC1
Supplementary Figure 15: Photoswitching of ionic currents through heteromeric TRPC4:TRPC1 and TRPC5:TRPC1 channel complexes. Whole cell recordings from HEK293 cells that were transiently transfected to express the indicated TRPC isoforms were obtained in the whole cell mode with a voltage and photoswitching paradigm as illustrated in (A). (B-D) Superimposed recordings of 20 consecutive sweeps are shown for cells that ony express TRPC4 or TRPC5 (left), and for cells that co-express the respective TRPC channel along with TRPC1 (right). Note the characteristic change of the current-voltage relationship with smaller inward currents and stronger outward rectification in cells that co-express TRPC1. […]
or 10 nM (all other panels). The data shown are representative for 4-12 patched cells, each.
Currents through heteromeric complexes that are composed of TRPC4:TRPC1 or TRPC5:TRPC1 subunits can be unequivocally recognized on the basis of their unique biophysical properties with smaller unitary and global inward current amplitudes and a marked outward rectification.44 We show […]
also the heteromeric complexes TRPC5:TRPC1 and TRPC4:TRPC1 that are formed upon co-expression with TRPC1 (Supplementary Fig. 15). […]

PSS E/Z ratios by HPLC = format: physicochemical; conditions: for PSS % E at 330 nm / PSS % E at 340 nm / PSS % E at 350 nm / PSS % E at 360 nm / PSS % E at 370 nm / PSS % E at 380 nm / PSS % E at 390 nm / PSS % E at 400 nm / PSS % E at 410 nm / PSS % E at 420 nm / PSS % E at 430 nm / PSS % E at 440 nm / PSS % E at 450 nm / PSS % E at 460 nm / PSS % E at 470 nm / PSS % E at 480 nm / PSS % E at 490 nm / PSS % E at 500 nm / PSS % Z at 330 nm / PSS % Z at 340 nm / PSS % Z at 350 nm / PSS % Z at 360 nm / PSS % Z at 370 nm / PSS % Z at 380 nm / PSS % Z at 390 nm / PSS % Z at 400 nm / PSS % Z at 410 nm / PSS % Z at 420 nm / PSS % Z at 430 nm / PSS % Z at 440 nm / PSS % Z at 450 nm / PSS % Z at 460 nm / PSS % Z at 470 nm / PSS % Z at 480 nm / PSS % Z at 490 nm / PSS % Z at 500 nm: monochromator, HPLC integration (296 nm)
Experimental: UV-VIS. UV-Vis spectra were recorded on an Agilent Cary 60 UV-Vis spectrophotometer using 1 cm quartz or PMMA cuvettes. All photoisomerisations were performed at room temperature in non-degassed solvents unless stated differently. Samples were irradiated with either a CoolLED pE-4000 or Polycon V monochromator (TILL Photonics, Gräfelfing, Germany) by shining from the […]
differently, all measurements were performed at a default concentration of 20 μM. Dark state refers […]
methods followed standard practices39–41. All-E and PSS spectra are shown in Supplementary […]
HPLC for PSS E/Z ratios. Analytical HPLC was performed on an Agilent 1200 SL with (a) a binary pump able to deliver H2O:MeCN eluent mixtures containing 0.1% formic acid at a 1 mL/min flow rate [for PSS measurements of final compounds, only MeCN was used], (b) YMC Carotenoid 5 µm, […]
(100 µM, MeCN) in HPLC vials were irradiated for at least 6 min from top with the monochromator […]
separate well); PSS ratio was then determined by integrating the signal at an isosbestic region

T1 sequence (Q9UL62 whole entry): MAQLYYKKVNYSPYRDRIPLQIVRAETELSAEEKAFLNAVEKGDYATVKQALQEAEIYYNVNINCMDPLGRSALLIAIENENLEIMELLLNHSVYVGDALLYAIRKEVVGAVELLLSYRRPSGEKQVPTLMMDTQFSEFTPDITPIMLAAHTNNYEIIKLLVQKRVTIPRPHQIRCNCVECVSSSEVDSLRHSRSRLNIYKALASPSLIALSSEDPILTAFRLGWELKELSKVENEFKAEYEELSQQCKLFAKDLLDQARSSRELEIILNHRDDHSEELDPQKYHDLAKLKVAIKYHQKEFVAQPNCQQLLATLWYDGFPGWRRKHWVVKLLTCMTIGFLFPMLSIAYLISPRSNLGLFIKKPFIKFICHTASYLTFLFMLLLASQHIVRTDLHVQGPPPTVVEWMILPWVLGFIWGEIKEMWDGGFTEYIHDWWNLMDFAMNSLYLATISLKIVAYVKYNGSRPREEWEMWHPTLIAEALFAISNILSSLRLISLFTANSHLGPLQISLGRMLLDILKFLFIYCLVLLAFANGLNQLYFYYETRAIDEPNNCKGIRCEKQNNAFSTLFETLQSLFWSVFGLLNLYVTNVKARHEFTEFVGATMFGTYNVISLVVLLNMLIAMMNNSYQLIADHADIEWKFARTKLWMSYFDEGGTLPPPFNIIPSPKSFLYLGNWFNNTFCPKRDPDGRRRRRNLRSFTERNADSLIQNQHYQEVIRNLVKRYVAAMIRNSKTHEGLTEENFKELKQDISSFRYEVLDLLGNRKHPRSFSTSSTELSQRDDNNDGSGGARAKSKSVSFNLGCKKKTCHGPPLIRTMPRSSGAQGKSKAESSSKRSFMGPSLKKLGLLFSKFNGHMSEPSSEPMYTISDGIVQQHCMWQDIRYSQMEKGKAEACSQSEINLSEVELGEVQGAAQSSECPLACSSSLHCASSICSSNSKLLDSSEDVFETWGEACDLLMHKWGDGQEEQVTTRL
T1 sequence (P48995 whole entry partner): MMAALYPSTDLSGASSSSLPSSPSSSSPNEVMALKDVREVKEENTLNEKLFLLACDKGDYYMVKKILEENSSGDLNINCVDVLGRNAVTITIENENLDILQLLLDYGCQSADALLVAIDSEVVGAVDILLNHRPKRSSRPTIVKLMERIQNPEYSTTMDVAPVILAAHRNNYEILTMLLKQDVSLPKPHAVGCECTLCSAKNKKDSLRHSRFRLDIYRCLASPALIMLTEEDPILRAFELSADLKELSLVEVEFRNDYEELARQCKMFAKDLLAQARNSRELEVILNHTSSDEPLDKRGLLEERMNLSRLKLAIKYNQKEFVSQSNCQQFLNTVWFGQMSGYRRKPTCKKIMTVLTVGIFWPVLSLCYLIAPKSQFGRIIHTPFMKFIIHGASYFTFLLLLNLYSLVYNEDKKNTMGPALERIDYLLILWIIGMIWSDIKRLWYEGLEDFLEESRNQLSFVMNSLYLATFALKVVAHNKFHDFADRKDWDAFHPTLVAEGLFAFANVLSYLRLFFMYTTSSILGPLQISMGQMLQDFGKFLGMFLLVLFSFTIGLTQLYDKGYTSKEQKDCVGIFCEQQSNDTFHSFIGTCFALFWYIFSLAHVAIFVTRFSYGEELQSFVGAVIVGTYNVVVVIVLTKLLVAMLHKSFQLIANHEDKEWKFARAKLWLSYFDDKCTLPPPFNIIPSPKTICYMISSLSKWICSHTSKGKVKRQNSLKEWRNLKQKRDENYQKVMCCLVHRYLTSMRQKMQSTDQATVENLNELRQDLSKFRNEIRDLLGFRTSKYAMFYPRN

SMILES	Chromocontrol over heteromeric TRPC5:TRPC1 currents versus homomeric channels (heteromeric TRPC5:TRPC1)	PSS %E around 410 nm (PSS E/Z ratios by HPLC)	PSS %Z around 360 nm (PSS E/Z ratios by HPLC)	PSS % E at 330 nm (PSS E/Z ratios by HPLC)	PSS % E at 340 nm (PSS E/Z ratios by HPLC)	PSS % E at 350 nm (PSS E/Z ratios by HPLC)	PSS % E at 360 nm (PSS E/Z ratios by HPLC)	PSS % E at 370 nm (PSS E/Z ratios by HPLC)	PSS % E at 380 nm (PSS E/Z ratios by HPLC)	PSS % E at 390 nm (PSS E/Z ratios by HPLC)	PSS % E at 400 nm (PSS E/Z ratios by HPLC)	PSS % E at 410 nm (PSS E/Z ratios by HPLC)	PSS % E at 420 nm (PSS E/Z ratios by HPLC)	PSS % E at 430 nm (PSS E/Z ratios by HPLC)	PSS % E at 440 nm (PSS E/Z ratios by HPLC)	PSS % E at 450 nm (PSS E/Z ratios by HPLC)	PSS % E at 460 nm (PSS E/Z ratios by HPLC)	PSS % E at 470 nm (PSS E/Z ratios by HPLC)	PSS % E at 480 nm (PSS E/Z ratios by HPLC)	PSS % E at 490 nm (PSS E/Z ratios by HPLC)	further results
Cn1c(=O)n(CCCO)c(=O)c2c1nc(Oc1ccc(N=Nc3ccccc3)c(OC(F)(F)F)c1)n2Cc1ccc(Cl)cc1 [AzPico]	comparable chromocontrol	~ 82%	95%	16%	8%	5%	5%	11%	23%	38%	79%	84%	84%	82%	80%	77%	74%	70%	67%	64%	PSS % E at 500 nm (PSS E/Z ratios by HPLC): 61%; PSS % Z at 330 nm (PSS E/Z ratios by HPLC): 84%; PSS % Z at 340 nm (PSS E/Z ratios by HPLC): 92%; PSS % Z at 350 nm (PSS E/Z ratios by HPLC): 95%; PSS % Z at 360 nm (PSS E/Z ratios by HPLC): 95%; PSS % Z at 370 nm (PSS E/Z ratios by HPLC): 89%; PSS % Z at 380 nm (PSS E/Z ratios by HPLC): 77%; PSS % Z at 390 nm (PSS E/Z ratios by HPLC): 62%; PSS % Z at 400 nm (PSS E/Z ratios by HPLC): 21%; PSS % Z at 410 nm (PSS E/Z ratios by HPLC): 16%; PSS % Z at 420 nm (PSS E/Z ratios by HPLC): 16%; PSS % Z at 430 nm (PSS E/Z ratios by HPLC): 18%; PSS % Z at 440 nm (PSS E/Z ratios by HPLC): 20%; PSS % Z at 450 nm (PSS E/Z ratios by HPLC): 23%; PSS % Z at 460 nm (PSS E/Z ratios by HPLC): 27%; PSS % Z at 470 nm (PSS E/Z ratios by HPLC): 30%; PSS % Z at 480 nm (PSS E/Z ratios by HPLC): 33%; PSS % Z at 490 nm (PSS E/Z ratios by HPLC): 36%; PSS % Z at 500 nm (PSS E/Z ratios by HPLC): 39%
Cn1c(=O)n(CCCO)c(=O)c2c1nc(Oc1ccc(N=Nc3ccccc3)c(Cl)c1)n2Cc1ccc(Cl)cc1 [AzHC]	comparable chromocontrol	~ 82%	95%	21%	6%	4%	4%	7%	23%	52%	74%	81%	80%	79%	76%	72%	68%	63%	59%	55%	PSS % E at 500 nm (PSS E/Z ratios by HPLC): 52%; PSS % Z at 330 nm (PSS E/Z ratios by HPLC): 79%; PSS % Z at 340 nm (PSS E/Z ratios by HPLC): 94%; PSS % Z at 350 nm (PSS E/Z ratios by HPLC): 96%; PSS % Z at 360 nm (PSS E/Z ratios by HPLC): 96%; PSS % Z at 370 nm (PSS E/Z ratios by HPLC): 93%; PSS % Z at 380 nm (PSS E/Z ratios by HPLC): 78%; PSS % Z at 390 nm (PSS E/Z ratios by HPLC): 48%; PSS % Z at 400 nm (PSS E/Z ratios by HPLC): 26%; PSS % Z at 410 nm (PSS E/Z ratios by HPLC): 19%; PSS % Z at 420 nm (PSS E/Z ratios by HPLC): 20%; PSS % Z at 430 nm (PSS E/Z ratios by HPLC): 21%; PSS % Z at 440 nm (PSS E/Z ratios by HPLC): 24%; PSS % Z at 450 nm (PSS E/Z ratios by HPLC): 28%; PSS % Z at 460 nm (PSS E/Z ratios by HPLC): 32%; PSS % Z at 470 nm (PSS E/Z ratios by HPLC): 37%; PSS % Z at 480 nm (PSS E/Z ratios by HPLC): 41%; PSS % Z at 490 nm (PSS E/Z ratios by HPLC): 45%; PSS % Z at 500 nm (PSS E/Z ratios by HPLC): 48%
